# Tests used:
# [1] = Nanoparticle characterization (size, zeta potential, drug loading, entrapment efficiency); format: physicochemical; conditions: per drug, HPLC
# Protocol: Briefly, in a typical procedure, a solution of ethylene oxide/propylene oxide block copolymer (Poloxamer-127; 2% [w/v] in double distilled water (ddH2O 10 mL); BASF, Mt. Olive, N.J.) was homogenized with ART drug powder (1 mg of each) in poly-lactic-co-glycolic acid) (PLGA) polymer (molecular weight 110,000-139,000 Daltons (100 mg) in 10 mL methylene chloride) using a probe sonicator (21W for 6 min) (Sonicator XL, Misonix, Farmingdale, N.Y.). The water-in-oil emulsion thus formed was further emulsified into 30 mL of 0.25% (w/v) aqueous solution of polyvinyl alcohol (PVA) as an emulsifier by using sonication as described above for 5 minutes to fowl multiple water-in-oil-in-water emulsion. […] Additionally, 6-hydroxycoumarin (a fluorescent dye; 1% w/v) was added to the polymer solution and one milligram of each ART were fabricated to make fluorescent nanoparticles for flow cytometry. In all formulation procedures, the emulsion was stirred for approximately 18 hours at room temperature to evaporate the organic solvent, methylene chloride, followed by ultracentrifugation (15,000 G for 45 minutes at 4° C., Optima LE-80K, Beckman, Palo Alto, Calif.), rinsed twice with ddH2O to remove PVA, and unentrapped drugs, and then lyophilized (Labconco, Freezone 4.5 at −52° C. and 5.62 torr) for 24 hours to obtain a dry powder.
# Nanoparticle characterization: Nanoparticles were evaluated for size by […] as well as scanning electron microscopy (SEM) and surface charge by using a zeta potential analyzer (ZetaPlus, Brookhaven Instruments, Holtsville, N.Y.). For SEM, a sample of nanoparticles was suspended in water (0.2 mg/ml) and an aliquot of suspended particles were placed onto a tip and sputter coated with 2% w/v uranyl acetate, dried, and then visualized by using a JEOL-40A (JEOL Ltd, Sheboygan, Wis.) scanning electron microscope. Additionally, one milligram of formed particles was dissolved in one milliliter methylene chloride in glass tubes and evaporated overnight in quadruplicate. High pressure liquid chromatography (HPLC) mobile phase (200 μL) reconstituted the tubes. The tubes were centrifuged (11,000 rpm, 10 minutes, 4° C.) and aliquots were injected into the HPLC equipment to determine ART drug loading and entrapment efficiency.
# Standards were analyzed in triplicate and averaged.
# [2] = system: PBMCs; experiment: ART release from nanoparticles / free drug: intracellular drug levels in PBMCs by HPLC
# Protocol: High pressure liquid chromatography (HPLC): HPLC was performed using a previously reported method (Weller et al., J. Chromatogr. B Analyt. Technol. Biomed. Life Sci., 2007, 848(2):369-73). Briefly, the equipment included a pump (LC-10ATvp), system controller (SIL-10ADvp); degasser unit (DGU-14A), refrigerated auto-sampler (SIL-10ADvp); and a UV-Vis detector (SPD-10ADvp) and a column heater (set at 35° C.) (all from Shimadzu Corporation, Columbia, Md.). Samples were run through a C18 pre-column and a Jupiter C18 reverse-phase [150×3.9 mm (I.D.)] with […] particle size packing (Phenomenex, Torrance, Calif.). The mobile phase was 25 mM KHPO4 (pH 4.9) and acetonitrile (40:60). The mobile phase was filtered and degassed prior to use. Flow rate was set at 0.9 mL/min and the detector was set at 212 nm. […] Peak area from the samples and standards were integrated using EZ-Start chromatography software (Shimadzu) on a Dell computer. Injection volume was 20 μL and all samples were analyzed in duplicate and averaged. Standards were analyzed in triplicate and averaged.
# Human monocyte isolation and cultivation: Human PBMCs were obtained from whole blood collection of HIV-1, -2 and hepatitis B seronegative donor and purified using CPT Vacutainer tubes (BD and Co., Sparks, Md.) according to the manufacturer instructions. […] (1×10^6 cells/mL) were cultured in DMEM supplemented with 10% heat-inactivated pooled human serum, 1% glutamine, 1% penicillin-streptomycin, and 10 µg/mL ciprofloxacin (Sigma Chemical Co) then filter sterilized. The PBMCs were used within 2 hours after blood collection. Media was one-half exchanged with fresh media every 2-3 days. These cells were used for ART drug release experiments from nanoparticles as determined by HPLC. Human PBMCs at 5×10^6 were cultured in DMEM supplemented with 10% heat-inactivated pooled human serum, 1% glutamine, 1% penicillin-streptomycin, and 10 µg/mL ciprofloxacin (Sigma Chemical Co), and 1000 U/mL highly purified recombinant human macrophage colony stimulating factor (MCSF; R&D Systems, Inc; Minneapolis, Minn.) for seven days. Media was one-half exchanged very 2-3 days. Monocyte-derived macrophages (MDM) were used for TEM and fluorescent imaging.
# ART Release from Nanoparticles: Antiretroviral nanoparticles (100 μg) were added to PBMC cell cultures. Flasks containing PBMCs and ART nanoparticles were placed in a 37° C., 5% CO2 incubator. At the appointed time, media in the flask was placed in a sterile 15 mL conical tube and centrifuged (400×G, 24° C. for 10 minutes). Cells (250 μL) were removed from the tube and put into a microfuge tube for HPLC analysis. […] Cell samples were placed in microfuge tubes, 250 μL of 100% methanol was added to lyse the cells then the cells were frozen (−20° C.) until assayed for ART drugs using HPLC. When HPLC was performed, microfuge tubes were thawed, centrifuged at 15,000 rpm at 4 C for 10 minutes and an aliquot of supernatant was placed into autosampler vials with glass insert. Free drugs (25 μg/mL of each ART drug) was dissolved in HPLC-grade ethanol, incubated with the PBMCs and cells were removed at 2, 4, 8, 24, and 48 hours, lysed with methanol, centrifuged, and assayed by HPLC as controls of these experiments.
# [3] = Serum pharmacokinetics after a single intraperitoneal dose in mice; conditions: for MRT: MRT (mean residence time within the serum)
# Protocol: (§1) The particles were weighed, reconstituted with PBS and 500 μg was injected intraperitoneally (IP) into male BALB/c mice. At specific times, (free: 0.08, 0.167, 0.25, 0.33, 1, 2 and 3 days; antiretroviral nanoparticles: 0.167, 0.33, 1, 2, 4, 7, 14, 21, 28, and 35 days) mice (n=3/time point) were euthanized and selected organs and serum were harvested for antiretroviral drug levels. Results are presented as mean±SEM.
# (§2) The nanoparticle powder was weighed and 500 μg was dissolved in phosphate-buffered saline (PBS) and injected intraperitoneally into each BALB/c male mice (25-28 g). […] At specified times points, mice (n=3-4) were euthanized using a CO2 chamber and organs (spleen, liver, kidney, brain, testes) and blood (100-150 μL) were removed from each of the mice. Blood was allowed to clot, centrifuged (1000×G) and serum was harvested. The organs were harvested and immediately placed on ice. At weekly intervals, an aliquot of the organ tissue was weighed and 500 μL of 100% methanol was added to tissue and serum samples. The tissue was homogenized using a pellet homogenizer, equilibrated at 4° C. for 30 minutes, and then centrifuged (11,400 RPM×15 minutes at 4° C.). An aliquot of the supernatant (20 μL/injection) was added to autosampler vials with glass inserts. […] Duplicate samples from tissues and serum were assayed and standards were assayed in triplicate. The organ/serum samples were compared to the standard curve (45-1000 ng/ml) that was performed on that day using peak area and EZ-Chrom software (Shimadzu, Corp.).
# Data is presented as mean±SEM where appropriate. Serum concentration-time curves were used to determine pharmacokinetic parameters. Elimination rate constant was determined using nonlinear regression of the terminal phase of the serum concentration-time curve. Apparent volume of distribution, total body clearance, mean residence time and area under the serum concentration-time curve to the last concentration obtained (AUC0-last) were determined by non-compartmental modeling.
# [4] = Drug levels in organs and serum of mice after a single intraperitoneal dose; conditions: male, BALB/c, mouse, liver, ip, 500 μg
# Protocol: as §1
# as §2, with “The organ/serum samples were compared to the standard curve (45-1000 ng/ml) that was performed on that day using peak area and EZ-Chrom software (Shimadzu, Corp.).” left out
# [5] = PLGA NPs 500 μg IP, mice, listed as E
# [6] = male, BALB/c, mouse, in vivo, ip, 500 ug
# [7] = male, BALB/c, mouse, in vivo, ip, 500 ug, Elimination half-life, drug given as PLGA nanoparticles, averaging
# [8] = male, BALB/c, mouse, in vivo, ip, 500 ug, Free ART
# [9] = male, BALB/c, mouse, in vivo, ip, 500 ug, NP ART
# [10] = male, BALB/c, mouse, in vivo, ip, 500 ug, T1/2 (elimination half-life), Free ART
# [11] = male, BALB/c, mouse, in vivo, ip, 500 ug, T1/2 (elimination half-life), NP ART
smiles,measurement,setting,value
"O=C1Nc2ccc(Cl)cc2[C@@](C#CC2CC2)(C(F)(F)F)O1 [EFV, efavirenz]",Antiretroviral drug loading of the nanoparticles,[1],10.8%
same,Entrapment efficiency,[1],86%
same,"Intracellular peak level, drug given as nanoparticles",[2]; PLGA NPs (100 μg) incubated with PBMCs,10.6+2.7 μg
same,"Time of intracellular peak concentration, drug given as nanoparticles",[2]; PLGA NPs incubated with PBMCs,24 h
same,"Time of intracellular peak level, drug given as nanoparticles",[2]; PLGA NPs incubated with PBMCs (summary of Example 1),4 days
same,"Intracellular peak concentration, free drug","[2]; free drug 25 μg/mL in ethanol, PBMCs, at 8 hours",3.1+0.02 μg
same,"Time of intracellular peak concentration, free drug","[2]; free drug, PBMCs",8 h
same,Time to elimination of free drug from PBMCs,"[2]; human, 25 μg/mL",≤ 48 h
same,"Peak serum level, drug given as PLGA nanoparticles","[3]; PLGA NPs 500 μg IP single dose, mice",853.2 ± 64.1 ng/mL
same,"AUC (area under the serum concentration-time curve), NP ART","[3]; PLGA NPs 500 μg IP, mice",E: 5716.9 ± 3177.7 ng-day/ml
same,"ClT (total body clearance), NPs","[3]; PLGA NPs 500 μg IP, mice",2.85 ± 2.12 mL/min/kg
same,"Time of peak serum level, drug given as PLGA nanoparticles","[3]; PLGA NPs 500 μg IP, mice",0.25 h
same,"Vd (volume of distribution), NP ART","[3]; PLGA NPs 500 μg IP, mice",11.38 ± 10.72 L/kg
same,"MRT (mean residence time within the serum), NP ART",[3]; [5],E: 10.3 ± 4.24 days
same,"Vd (volume of distribution), NP ART",[3]; [5],E: 11.4 ± 10.7 L/kg
same,"Peak serum level, free drug","[3]; free drugs 500 μg IP single dose, mice, 4 hours post-injection",3.5 ± 1.9 µg/L
same,"AUC (area under the serum concentration-time curve, AUC0-last), Free ART","[3]; free drugs 500 μg IP, mice",646 ± 640 ng·days/mL
same,"Time of peak serum level, free drug","[3]; free drugs 500 μg IP, mice",4 h
same,"Vd (volume of distribution), Free ART","[3]; free drugs 500 μg IP, mice",39.3 ± 26.6 L/kg
same,"T1/2 (elimination half-life), Free ART","[3]; free drugs 500 μg IP, mice, serum, listed as E",E: 11.76 ± 2.8 hrs
same,"AUC (area under the serum concentration-time curve, AUC0-last), Free ART",[3]; [6],E: 645. 9 ± 640.2 ng-day/ml
same,MRT,"[3]; male, BALB/c, mouse, serum, ip, 500 ug, Free ART, free drugs 500 μg IP, mice",13.7 h
same,MRT,"[3]; male, BALB/c, mouse, serum, ip, 500 ug, NP ART, PLGA NPs 500 μg IP, mice",248 h
same,half-life,"[3]; male, BALB/c, mouse, serum, ip, 500 ug, T1/2 (elimination half-life), Free ART, free drugs 500 μg IP, mice",11.8 ± 2.8 h
same,half-life,"[3]; male, BALB/c, mouse, serum, ip, 500 ug, T1/2 (elimination half-life), NP ART, PLGA NPs 500 μg IP, mice",35.5 h
same,concentration at 28 day,[4],1020 ± 440 ng/g
"Cc1cccc(C)c1OCC(=O)N[C@@H](Cc1ccccc1)[C@@H](O)C[C@H](Cc1ccccc1)NC(=O)[C@H](C(C)C)N1CCCNC1=O [LPV, lopinavir]",Antiretroviral drug loading of the nanoparticles,[1],5.2%
same,"Time of intracellular peak concentration, free drug","[2]; human, 25 μg/mL",8 h
same,Time to elimination of free drug from PBMCs,"[2]; human, 25 μg/mL",≤ 48 h
same,"Intracellular peak level, drug given as nanoparticles","[2]; human, 100 μg",4.1+2.0 μg
same,"Time of intracellular peak concentration, drug given as nanoparticles","[2]; human, 100 μg",96 h
same,"Time of intracellular peak level, drug given as nanoparticles","[2]; human, 100 μg",4 days
same,"Vd (volume of distribution), Free ART",[3]; [6],41.6 ± 31.7 L/kg
same,"Vd (volume of distribution), NP ART",[3]; [6],118.6 ± 165.9 L/kg
same,half-life,[3]; [7],> 1680 h
same,MRT,[3]; [8],14.4 h
same,MRT,[3]; [9],5490 h
same,half-life,[3]; [10],15.1 ± 6.4 h
same,half-life,[3]; [11],645 h
same,"AUC (area under the serum concentration-time curve), NP ART","[3]; mouse, in vivo, ip, 500 ug",L: 3329.8 ± 1785.3 ng-day/ml
"CC(C)c1nc(CN(C)C(=O)N[C@H](C(=O)N[C@@H](Cc2ccccc2)C[C@H](O)[C@H](Cc2ccccc2)NC(=O)OCc2cncs2)C(C)C)cs1 [RTV, ritonavir]",Antiretroviral drug loading of the nanoparticles,[1],4.9%
same,"Time of intracellular peak concentration, free drug","[2]; human, 25 μg/mL",8 h
same,Time to elimination of free drug from PBMCs,"[2]; human, 25 μg/mL",≤ 48 h
same,"Intracellular peak level, drug given as nanoparticles","[2]; human, 100 μg",2.5+1.1 μg
same,"Time of intracellular peak concentration, drug given as nanoparticles","[2]; human, 100 μg",96 h
same,"Time of intracellular peak level, drug given as nanoparticles","[2]; human, 100 μg",4 days
same,"Vd (volume of distribution), Free ART",[3]; [6],9.7 ± 4.4 L/kg
same,"Vd (volume of distribution), NP ART",[3]; [6],549.9 ± 360 L/kg
same,half-life,[3]; [7],> 1680 h
same,MRT,[3]; [8],4.8 h
same,MRT,[3]; [9],775 h
same,half-life,[3]; [10],9.6 ± 2.8 h
same,half-life,[3]; [11],5500 h
same,"AUC (area under the serum concentration-time curve), NP ART","[3]; mouse, in vivo, ip, 500 ug",R: 7020.5 ± 11428.7 ng-day/ml
